The text below walks through data of PubChem BioAssay (NCI).

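Cultured in 96-well plates, cells were exposed to test compound for 48 hours across five concentrations. TGI: concentration producing complete growth inhibition.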

Test systems include ACHN renal; BT-549 breast; HOP-92 NSCLC; KM12 colon; MALME-3M melanoma; MCF7 breast; MDA-MB-435; MOLT-4 leukemia; NCI-H226 lung; NCI-H23 lung; OVCAR-5 ovarian; RXF 393 renal; SK-OV-3 ovarian; SNB-19 CNS; SNB-75 CNS; SR leukemia; SW-620 colon; U251 CNS; UACC-62 melanoma; RPMI-8226 leukemia.
Holding throughout (assay): NCI tumour cell line growth inhibition, 48 h

In the case of `O=C1c2c(Cl)c(Cl)c(Cl)c(Cl)c2C(=O)N1CCN(c1c(Cl)ssc1=O)c1c(Cl)ssc1=O`, the TGI in the assay on ACHN renal is 32.9 µM; in the assay with BT-549 breast, over 100 µM; in the assay with HOP-92 NSCLC, 35.5 µM; in the assay with KM12 colon, over 100 µM; with MALME-3M melanoma, 53.6 µM; in the assay with MCF7 breast, 44.8 µM. Also, the TGI in the assay with MDA-MB-435 was 45.4 µM; in the assay on MOLT-4 leukemia, 37.7 µM; with NCI-H226 lung, over 100 µM; in the assay on NCI-H23 lung, over 100 µM; with OVCAR-5 ovarian, over 100 µM; with RXF 393 renal, 34.4 µM. For the same compound, the TGI was over 100 µM in the assay with SK-OV-3 ovarian; over 100 µM in the assay with SNB-19 CNS; over 100 µM with SNB-75 CNS; 44.7 µM in the assay on SR leukemia; 61.9 µM in the assay with SW-620 colon; over 100 µM in the assay with U251 CNS. The compound further gave a TGI with UACC-62 melanoma of 44.4 µM.
Regarding `COc1cc(-c2cn(S(=O)(=O)c3ccc(C)cc3)c3ccccc23)nc(-c2cn(S(=O)(=O)c3ccc(C)cc3)c3ccccc23)n1`, the TGI in the assay with ACHN renal is over 100 µM; in the assay on BT-549 breast it was over 100 µM; with HOP-92 NSCLC it was over 60.9 µM; in the assay on KM12 colon, 8.44 µM; in the assay on MCF7 breast, over 100 µM; in the assay on MDA-MB-435, 0.47 µM. The TGI in the assay on MOLT-4 leukemia is over 22.5 µM; with NCI-H226 lung, over 100 µM; with NCI-H23 lung it was 0.927 µM; in the assay with OVCAR-5 ovarian it was 19.6 µM; with RPMI-8226 leukemia it was over 100 µM; with RXF 393 renal, over 100 µM. For the same compound, the TGI was over 100 µM with SK-OV-3 ovarian; 32.1 µM with SNB-19 CNS; over 100 µM in the assay on SNB-75 CNS; over 100 µM in the assay on SR leukemia; over 56.9 µM with SW-620 colon; 13.8 µM with U251 CNS. Besides, the TGI in the assay with UACC-62 melanoma was over 100 µM.
With `COc1cc2c(/C=C3/C(=O)N(C)c4ccccc43)c(Cl)[nH]c2cc1C`, the TGI in the assay on ACHN renal was over 55.9 µM; with BT-549 breast, 3.64 µM; in the assay on HOP-92 NSCLC it was over 50.1 µM; with MCF7 breast, over 23.5 µM; in the assay on MDA-MB-435, 0.038 µM; in the assay on MOLT-4 leukemia it was 11.8 µM. The TGI with NCI-H226 lung is over 100 µM; with NCI-H23 lung, 1.55 µM; with OVCAR-5 ovarian, over 57.2 µM; with RPMI-8226 leukemia it was 7.79 µM; with RXF 393 renal, 70.5 µM; in the assay with SK-OV-3 ovarian, 0.629 µM. Further, the TGI in the assay on SNB-19 CNS is 14.2 µM; in the assay with SNB-75 CNS it was 46.2 µM; in the assay on SR leukemia, 10.2 µM; with SW-620 colon it was over 100 µM; with U251 CNS, 1.57 µM; with UACC-62 melanoma, over 52.3 µM.
Turning to `Cc1cccc(C(C)C)c1NC(=O)C(=O)CC(=O)c1sc(Nc2ccccc2Cl)nc1C`, the TGI in the assay with ACHN renal is over 100 µM; in the assay with BT-549 breast it was 93.2 µM; in the assay on HOP-92 NSCLC, 66.2 µM; in the assay with KM12 colon, over 100 µM; in the assay on MALME-3M melanoma, over 100 µM; in the assay on MCF7 breast, over 100 µM. Further, the TGI was 33.2 µM with MDA-MB-435; over 100 µM with MOLT-4 leukemia; over 100 µM in the assay on NCI-H23 lung; over 100 µM with OVCAR-5 ovarian; over 100 µM in the assay with RPMI-8226 leukemia; over 100 µM with RXF 393 renal. Also, the TGI with SK-OV-3 ovarian, in the assay with SNB-19 CNS, with SNB-75 CNS, with SR leukemia, in the assay on SW-620 colon and in the assay with U251 CNS was over 100 µM throughout. The TGI with UACC-62 melanoma is over 100 µM.
In the case of `O=c1sc2c(s1)SSSSS2`, the TGI in the assay with ACHN renal, in the assay with BT-549 breast, in the assay with HOP-92 NSCLC, with KM12 colon, with MALME-3M melanoma and with MCF7 breast was over 50 µM throughout. For the same compound, the TGI with MDA-MB-435 was over 50 µM; in the assay on MOLT-4 leukemia, 42.3 µM; in the assay with NCI-H226 lung it was over 50 µM; in the assay on NCI-H23 lung, over 50 µM; in the assay with OVCAR-5 ovarian it was over 50 µM; in the assay with RPMI-8226 leukemia it was over 50 µM. Also, the TGI in the assay with RXF 393 renal, with SK-OV-3 ovarian, in the assay on SNB-19 CNS, in the assay with SR leukemia, with SW-620 colon and in the assay with U251 CNS was over 50 µM in each case. For the same compound, the TGI with UACC-62 melanoma is over 50 µM.
Consider `CC(=O)Nc1ccc(Nc2cc(=O)[nH]c(=O)[nH]2)cc1`, for which the TGI with ACHN renal, with BT-549 breast, with HOP-92 NSCLC, in the assay on KM12 colon, with MALME-3M melanoma and in the assay with MCF7 breast was over 100 µM each time. The TGI is over 100 µM with MDA-MB-435; 37.4 µM in the assay with MOLT-4 leukemia; over 100 µM in the assay on NCI-H226 lung; over 100 µM with OVCAR-5 ovarian; over 100 µM with RPMI-8226 leukemia; over 100 µM in the assay on RXF 393 renal. For the same compound, the TGI in the assay with SNB-19 CNS, with SNB-75 CNS, in the assay with SR leukemia, with SW-620 colon and with U251 CNS was over 100 µM in each case.
`CCCCCC(C)(C)CCC(=O)OC1OC(COC2OC(COC3OC(CO)C(O)C(O)C3O)C(O)C(O)C2O)C(O)C(O)C1O` (centres undefined): the TGI with ACHN renal, in the assay with BT-549 breast, with HOP-92 NSCLC, in the assay on KM12 colon, in the assay on MALME-3M melanoma and with MCF7 breast was over 100 µM throughout. For the same compound, the TGI with MDA-MB-435, in the assay with MOLT-4 leukemia, with NCI-H226 lung, with NCI-H23 lung, in the assay with OVCAR-5 ovarian and with RPMI-8226 leukemia was over 100 µM throughout. Further, the TGI with RXF 393 renal, with SK-OV-3 ovarian, with SNB-19 CNS, in the assay with SR leukemia, with SW-620 colon and in the assay on U251 CNS was over 100 µM throughout. Besides, in the assay with UACC-62 melanoma, the TGI was over 100 µM.
With `NNC(=O)CSc1nc2ccc(I)cc2c(=O)n1Cc1ccccc1`, the TGI with ACHN renal is 40.2 µM; in the assay on BT-549 breast it was 42.6 µM; in the assay with HOP-92 NSCLC, 57 µM; in the assay on KM12 colon, 58.7 µM; in the assay with MCF7 breast, 59.4 µM; in the assay with MDA-MB-435, over 100 µM. Moreover, the TGI was determined as 45.3 µM in the assay with MOLT-4 leukemia; 41.9 µM in the assay with NCI-H226 lung; 74.7 µM with NCI-H23 lung; 40.9 µM in the assay with OVCAR-5 ovarian; 54.7 µM in the assay with RPMI-8226 leukemia; 26.5 µM in the assay on RXF 393 renal. The TGI was 32.7 µM in the assay on SK-OV-3 ovarian; 54.8 µM in the assay on SNB-19 CNS; 50.4 µM with SNB-75 CNS; 61.2 µM in the assay with SR leukemia; over 100 µM with SW-620 colon; 40.8 µM with U251 CNS. In the assay with UACC-62 melanoma, this compound showed a TGI of 40.4 µM.
